Experimental data: article PMC9916658, “Design and Synthesis of New Quinazolin-4-one Derivatives with Negative mGlu7 Receptor Modulation Activity and Antipsychotic-Like Properties” (International Journal of Molecular Sciences, 2023)
In brackets after ≈: the same amount, converted by molar mass. Where two headings read alike, the source gives them in different places.

Experiments:
[1] = molecular target: T1, recombinant human mGlu7 receptor (FAST-0154C) (Homo sapiens, UniProt Q14831); experiment: NAM mGlu7 activity on CHO-K1 cell line, cAMP HTRF (EuroscreenFast protocol); assay type: cell-based; conditions: CHO-K1 human mGlu7, agonist L-AP4 at EC80
T1 construct: host or cells: CHO-K1
T1 sequence (Q14831 35-915): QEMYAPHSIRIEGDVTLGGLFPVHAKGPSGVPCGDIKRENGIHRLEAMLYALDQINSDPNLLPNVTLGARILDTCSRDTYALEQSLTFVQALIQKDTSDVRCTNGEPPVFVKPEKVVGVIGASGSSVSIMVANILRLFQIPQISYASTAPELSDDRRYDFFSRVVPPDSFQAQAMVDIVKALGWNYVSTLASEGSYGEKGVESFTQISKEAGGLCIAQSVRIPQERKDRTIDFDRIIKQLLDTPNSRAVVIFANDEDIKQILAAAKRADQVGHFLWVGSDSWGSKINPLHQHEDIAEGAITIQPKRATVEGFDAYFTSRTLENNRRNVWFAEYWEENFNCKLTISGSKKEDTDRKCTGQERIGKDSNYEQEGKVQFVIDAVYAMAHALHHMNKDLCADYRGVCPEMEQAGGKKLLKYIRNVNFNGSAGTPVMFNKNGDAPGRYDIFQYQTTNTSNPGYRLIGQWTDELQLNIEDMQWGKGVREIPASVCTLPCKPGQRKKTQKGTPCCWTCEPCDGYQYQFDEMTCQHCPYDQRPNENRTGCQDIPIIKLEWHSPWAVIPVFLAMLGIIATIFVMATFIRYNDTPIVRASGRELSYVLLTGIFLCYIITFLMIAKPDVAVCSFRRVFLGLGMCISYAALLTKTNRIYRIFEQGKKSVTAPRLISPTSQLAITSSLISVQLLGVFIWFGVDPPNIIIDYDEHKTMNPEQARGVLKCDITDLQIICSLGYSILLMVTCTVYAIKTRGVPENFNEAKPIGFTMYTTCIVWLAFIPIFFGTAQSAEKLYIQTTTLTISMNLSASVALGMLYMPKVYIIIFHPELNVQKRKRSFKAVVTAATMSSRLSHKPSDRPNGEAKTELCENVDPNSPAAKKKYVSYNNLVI
Text: with inducible expression of human mGlu7 receptor. […]
2.2. NAM mGlu7 receptor activity on CHO-K1 cell line according to EuroscreenFast protocol
ALX-065 and ALX-171 were testing for negative allosteric modulator (NAM) activity on alternative […]
mGlu7 cell line (recombinant human mGlu7 receptor (FAST-0154C) using cAMP HTRF functional assay) […]
by EuroscreenFast company according to the provided methodology.
Receptor Accession Cell line Reference Reference
Number agonist antagonist
Compounds were tested for NAM activity at the human mGlu7 receptor (FAST-0154C) in dose […]
response and in duplicates (range concentration: 1 nM – 25 µM) […]
cAMP HTRF assay for Gi coupled receptor
CHO-K1 cells expressing recombinant human mGlu7 receptor (FAST-0154C) grown prior to the test […]
inmedia without antibiotic are detached by gentle flushing with PBS-EDTA (5 mM EDTA), recovered […]
by centrifugation and resuspended in assay buffer (KRH: 5 mM KCl, 1.25 mM MgSO4, 124 mM NaCl, […]
25 mM HEPES, 13.3 mM Glucose, 1.25 mM KH2PO4, 1.45 mM CaCl2, 0.5 g/L BSA, supplemented with 1 […]
Dose response curves are performed in parallel with the reference compounds.
For antagonist/NAM test (96 well): 12 µl of cells are mixed with 6 µl of the test compound at increasing concentrations and then incubated 10 min. Thereafter 6 µl of the mix of the forskolin and reference agonist is added at a final concentration corresponding to the historical EC80. The plates are then incubated for 30 min at room temperature. After addition of the lysis buffer and 1 hour incubation, cAMP concentrations are estimated, according to the manufacturer specification, with the HTRF kit. […]

[2] = Pharmacokinetics and brain uptake in mice after i.p. administration; assay type: in vivo, mouse (Albino Swiss); conditions: mouse Albino Swiss, 10 mg/kg i.p.; for AUC(0-t): ip
Procedure: Compounds were administered to mice at a dose of 10 mg/kg i.p. Plasma and tissue samples were collected at 0.25, 0.50, 1.0, 2.0, 4.0, 6.0, and 24 h. Plasma and tissue samples from all drug-treated animals were thawed at room temperature prior to use. The standard protocol for sample preparation was used: 200 μL of acetonitrile was added to the Eppendorf tubes with 50 μL of studied plasma samples or tissue homogenate. Samples were mixed for 5 min on a mixer at 25 °C and 1400 rpm. The tubes were then centrifuged at 2000× g for 15 min at 4 °C. A total of 180 μL of each supernatant was transferred to a plate well. Finally, each sample was injected into the LC–MS column. Calibration curve serial dilution method: Plasma was spiked with a standard at different concentrations. Acetonitrile was added. After mixing and centrifugation, the supernatant was collected.
Chromatographic conditions. Plasma and tissue samples from all drug-treated animals at selected time points were analyzed using a previously developed nonvalidated LC–MS/MS method. […] The LC–MS analysis was carried out on a Bruker amaZon SL mass spectrometer using the positive/negative ion ESI mode. Chromatographic separation was achieved on an Ascentis Express C18 column (5 cm × 2.1 mm, 2.7 μM, Supelco Technologies) at room temperature with a thermostatted column oven. A gradient elution of eluents A (acetonitrile (LiChrosolv, Reag. Ph Eur) + 0.1% formic acid (Sigma Aldrich, 98–100%)) and B (water + 0.1% formic acid) were used for separation. The flow rate was set at 1 mL/min. The injection volume was 20 μL, and the time of injection was 4 min.
Mass spectrometric conditions. An ion trap mass spectrometer (Bruker amaZon SL, Bruker, Bremen, Germany) was equipped with an electrospray source operating in the positive/negative ion mode. Data were collected and processed using Bruker Quant Analysis (Bruker, Bremen, Germany) software. A quantification of the analytes was performed in the SIM mode.

[3] = Kinetic solubility assay in HBSS buffer; assay type: physicochemical; conditions: aqueous buffer, kinetic from dmso stock; Hanks-HEPES (HBSS buffer), pH 7.4; read-out: KS (kinetic solubility)
Procedure: The kinetic solubility assay was performed to determine the solubility of the compounds in the in vitro assay conditions. The assay investigated the solubility based on the precipitation process in the HBSS buffer. For the preparation of the assay buffer, the following compounds were dissolved in 800 mL purified water: • − 130 mM sodium chloride, NaCl (7.600 g); • − 5.4 mM potassium chloride, KCl (0.403 g); • − 0.8 mM magnesium sulfate, MgSO4 × 7H2O (0.197 g); • − 0.9 mM sodium phosphate monobasic, NaH2PO4 × 2H2O (0.140 g); • − 25 mM D-glucose (4.500 g); • − 20 mM HEPES sodium salt (5.210 g).
The buffer was adjusted to pH 7.4, and the following compound was added to the mixture: • − 1.8 mM calcium chloride, CaCl2 × 2H2O (0.265 g).
The total volume was adjusted to 1000 mL.
The investigated compounds were diluted (in triplicate) with the HBSS buffer at pH 7.4 to a final concentration of 500 μM.
The mixture was shaken on a filter plate at 500 rpm for 1.5 h at RT. After incubation, the filter plate was placed inside a vacuum manifold and filtrated. Samples were collected and the concentration of the filtrate was determined spectrophotometrically by measuring the UV–VIS absorption spectrum. Concentrations were calculated based on equations resulting from the calibration curves (in duplicates, 8 calibration points, dilution Factor ×2, 500 µM → 3.91 µM, including blank sample).

[4] = Metabolic stability in mouse microsomal fraction; assay type: in vitro ADME; conditions: 1 µM, mouse microsomes 0.3 mg/mL, NADPH-regenerating system
Procedure: A metabolic stability assay was performed using a mouse microsomal fraction (phase I of metabolism) obtained from XenoTech (Kansas City, MO, USA). Compounds for metabolic stability testing were prepared as 10 mM stock solutions in DMSO. Compounds were incubated in triplicate at a 1 µM initial concentration with the microsomal fraction in the presence of NRS (NADPH-regenerating system, 1.3 mM). The final microsomal incubation (0.3 mg/mL) contained the components mentioned below in a pH 7.4 phosphate buffer. Control incubations were conducted without cofactors. The reference compound verapamil was used as a positive control. Incubations were carried out for 1 h on 96-well plates using a heated (+37 °C) orbital shaker (350 rpm). After incubation, the reaction was quenched through the addition of cold acetonitrile. The plate containing the samples was centrifuged at 2000 rpm for 15 min at 4 °C. The supernatants were analyzed using LC–MS.
The HPLC–MS consisted of a Dionex, Ultimate 3000 HPLC, and a Bruker Daltonics amaZon SL mass spectrometer (ESI-IT). The conditions were as follows: Column HPLC Ascentis Express C18 (5 cm × 2.1 mm, 2.7 µm) and an injection volume of 20 µL. An acetonitrile gradient was used with 0.1% formic acid in water at a constant flow rate of 1 mL/min. The programming was as follows: 0–0.5 min 5% ACN, 0.5–3.0 increase of 5–95%, 3.0–3.3 remaining at 95% ACN, 3.3–3.4 min decrease of 95–5% ACN, and 3.4–4.0 min 5% ACN. Samples were analyzed in a single-ion monitoring scan mode in positive mode. The conditions of the main parameters were as follows: a trap drive of 48.2, capillary exit voltage of 140.0 V, dry temperature (set) of 300 °C, nebulizer pressure (set) of 40.00 psi, dry gas flow (set) of 9.00 L/min HV capillary voltage of −4500 V, HV end-plate offset voltage of −500 V.
The percent loss of compounds was calculated through the normalization of the peak area against time 0, where the peak area at T0 was 100%. The elimination rate constant (h) was determined from the plot of ln (percent loss of compound) as a time function and equal to the minor value of the linear curve slope.

[5] = system: animal models of schizophrenia; conditions: cited from earlier work

% inhibition at maximal concentration ([1]; range 1 nM – 25 µM): 100%
IC50 ([1]; read-out: IC50 (CHO-K1, Figure S4)): 270 nM
AUC(0-t) ([2]; brain, read-out: AUC0-t, brain): 8.98 µM·h
AUC(0-t) ([2]; plasma, read-out: AUC0-t, plasma): 13.5 µM·h
Cmax, brain ([2]; brain): 5.42 µM/L
Tmax, plasma ([2]; plasma): 15 min
solubility kinetic at 1.5 h [3]: 5.6 µM (≈ 1.87 µg/mL)
MML (metabolic stability liver microsome mouse) [4]: 49.78 % remaining after 60 min
SMILES: COc1ccc(-c2cc3onc(-c4ccncc4)c3c(=O)n2C)cc1 [MMPIP, reference compound]
MK-801-induced disruptions in social interaction [5]: not observed
prepulse inhibition (PPI) [5]: not observed
activity in animal models of schizophrenia ([5]; mGlu7 NAMs): antipsychotic activity
